Consider 4 compounds from publication PMC10114980, “Triple targeting of mutant EGFR^L858R/T790M, COX-2, and 15-LOX: design and synthesis of novel quinazolinone tethered phenyl urea derivatives for anti-inflammatory and anticancer evaluation” (Journal of Enzyme Inhibition and Medicinal Chemistry, 2023).

The structures appear in SMILES notation. “And” between values parts separate entries of the source, which are not always exact repeats. Equal values may be shown once.

For one data set, the target named is T1, ovine COX-1 (Ovis aries, UniProt P05979).
T1 sequence (P05979 25-600): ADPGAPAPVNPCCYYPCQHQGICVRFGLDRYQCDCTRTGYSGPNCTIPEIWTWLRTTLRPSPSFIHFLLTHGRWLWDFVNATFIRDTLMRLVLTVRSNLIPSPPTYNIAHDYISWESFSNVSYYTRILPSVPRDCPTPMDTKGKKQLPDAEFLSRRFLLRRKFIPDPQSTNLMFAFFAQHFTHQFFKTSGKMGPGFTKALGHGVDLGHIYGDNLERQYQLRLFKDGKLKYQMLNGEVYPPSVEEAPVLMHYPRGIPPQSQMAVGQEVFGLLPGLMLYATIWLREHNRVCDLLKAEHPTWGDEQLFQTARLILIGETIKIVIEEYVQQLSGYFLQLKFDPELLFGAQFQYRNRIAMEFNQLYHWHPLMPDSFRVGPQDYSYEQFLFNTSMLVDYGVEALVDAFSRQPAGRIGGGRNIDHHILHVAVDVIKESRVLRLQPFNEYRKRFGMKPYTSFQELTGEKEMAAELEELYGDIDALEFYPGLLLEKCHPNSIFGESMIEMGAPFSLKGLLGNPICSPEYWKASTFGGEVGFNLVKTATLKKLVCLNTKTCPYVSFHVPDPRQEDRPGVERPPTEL
As to the kind of experiment: In vitro COX-1 inhibition assay kit (Cayman). The format is biochemical. The note with it: mean ± SEM, n = 3 replicates.

The target of the next data set is T2, human recombinant COX-2 (Homo sapiens, UniProt P35354).
T2 sequence (P35354 18-604): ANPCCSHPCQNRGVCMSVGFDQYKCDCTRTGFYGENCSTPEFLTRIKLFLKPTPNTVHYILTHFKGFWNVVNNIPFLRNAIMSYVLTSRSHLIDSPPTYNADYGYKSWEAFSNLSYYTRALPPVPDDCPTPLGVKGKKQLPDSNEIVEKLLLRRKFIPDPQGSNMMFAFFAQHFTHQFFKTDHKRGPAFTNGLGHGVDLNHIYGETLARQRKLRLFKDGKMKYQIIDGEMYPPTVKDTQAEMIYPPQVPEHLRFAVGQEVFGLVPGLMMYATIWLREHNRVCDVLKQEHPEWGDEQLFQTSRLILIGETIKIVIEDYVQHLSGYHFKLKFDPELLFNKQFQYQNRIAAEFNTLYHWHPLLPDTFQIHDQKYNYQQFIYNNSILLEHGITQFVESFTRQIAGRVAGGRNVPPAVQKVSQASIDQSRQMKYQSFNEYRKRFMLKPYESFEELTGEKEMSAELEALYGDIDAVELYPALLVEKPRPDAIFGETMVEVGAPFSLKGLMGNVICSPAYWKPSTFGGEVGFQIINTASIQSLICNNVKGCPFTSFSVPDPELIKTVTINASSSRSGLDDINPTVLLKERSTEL
As to the kind of experiment: In vitro COX-2 inhibition assay kit (Cayman). It counts as biochemical. As to conditions: for COX-2 SI: Selectivity index = COX-1 IC50/COX-2 IC50; for IC50: human recombinant COX-2, mean ± SEM, n = 3 replicates.

The subject of data set [1] is LPS-induced NO production in RAW 264.7 cells. As to the kind of experiment: NO production in LPS-activated RAW 264.7 macrophage cells (DAF-FM diacetate). The format is cell-based. The note with it: Mus musculus, RAW264.7; LPS-activated RAW 264.7 cells; mean ± SEM, three replicates. The protocol: TNF-α and IL-6 production were detected in RAW 264.7 macrophage cell culture supernatants following the induction of inflammation by LPS. Moreover, the probes of oxidative species 2,7-dichlorofluorescein diacetate (DCFH-DA) (Molecular Probes) and NO, 4-amino-5-methylamino-2,7-difluorofluorescein diacetate (DAF-FM diacetate) (Molecular Probes) were used to investigate the antioxidant and NO production inhibitory potential of the test compounds. Briefly, RAW 264.7 cells were cultured in black 96 well plates (200 000 cells/mL, 100 µl/well) for 24 h followed by the incubation with the individual test compounds or the reference drugs at different concentrations (12.5, 25, 50, and 100 µM) for 2 h at 37 °C. LPS was then added at a final concentration of 1 µg/mL for an additional 18 h. The cell culture supernatant was collected from cells treated with the different compounds at 25 µM to measure TNF-α and IL-6 levels (1:10 dilution) using DuoSet ELISA kits (R&D Systems, Minneapolis, MN) following the manufacturer’s instructions. Then, the plates were washed to perform ROS and NO detection assays as detailed in our previous studies[16]^,[27].

Data set [2] deals with LPS-induced TNF-α production in RAW 264.7 cells. Description: TNF-α production in LPS-activated RAW 264.7 cells (ELISA). The format is cell-based. The note with it: LPS-activated RAW 264.7 cells treated with 25 µM of the compound.
A further data set relates to A549/ATCC. As to the kind of experiment: NCI single dose screen, A549/ATCC. It counts as cell-based. The note with it: Homo sapiens, non-small cell lung cancer, single dose 10^−5 M, read-out: growth inhibition percentage. The protocol: (§1) Screening of the anticancer activity of the newly synthesised compounds (6a, 6c, 6d, 6e, 6j, 6l, 6m, 6n, 6o, and 6p) was performed by the US National Cancer Institute (NCI) using 60 different human tumour cell lines in accordance with standard procedures formerly reported.
(§2) In vitro anticancer screening was carried out for the selected compounds at a single dose (10^−5 M) against 60 different human tumour cell lines of nine different cancer cell types: leukaemia, lung, colon, CNS, melanoma, ovarian, renal, prostate, and breast cancers.

The subject of the next data set is NCI-H322M. As to the kind of experiment: NCI single dose screen, NCI-H322M. The format is cell-based. The note with it: Homo sapiens, non-small cell lung cancer, single dose 10^−5 M, read-out: growth inhibition percentage. The method, then: as §1, §2
The subject of a further data set is NCI-H460. Description: NCI single dose screen, NCI-H460. The format is cell-based. The note with it: Homo sapiens; NCI-H460, non-small cell lung cancer; single dose 10^−5 M; read-out: growth inhibition percentage. The method, then:
as §1, §2

The test system of the next data set is HCT-15. As to the kind of experiment: NCI single dose screen, HCT-15. The format is cell-based. The note with it: Homo sapiens; HCT-15, colon cancer; single dose 10^−5 M; read-out: growth inhibition percentage. The method, then: as §1, §2
For another data set, the system named is SF-539. As to the kind of experiment: NCI single dose screen, SF-539. It counts as cell-based. The note with it: Homo sapiens, read-out: growth inhibition percentage. The method, then: as §1, §2
Another data set concerns SNB-19. As to the kind of experiment: NCI single dose screen, SNB-19. It counts as cell-based. The note with it: Homo sapiens; SNB-19, CNS cancer; single dose 10^−5 M; read-out: growth inhibition percentage. The protocol:
as §1, §2

Another data set has as its system SNB-75. Description: NCI single dose screen, SNB-75. It counts as cell-based. As to conditions: Homo sapiens; SNB-75, CNS cancer; single dose 10^−5 M; read-out: growth inhibition percentage. The protocol: as §1, §2
A further data set deals with MDA-MB-435. As to the kind of experiment: NCI single dose screen, MDA-MB-435. The format is cell-based. The note with it: Homo sapiens; MDA-MB-435, melanoma; single dose 10^−5 M; read-out: growth inhibition percentage. The protocol:
as §1, §2

Another data set deals with MCF7. As to the kind of experiment: NCI single dose screen, MCF7. It counts as cell-based. The note with it: Homo sapiens; MCF7, breast cancer; single dose 10^−5 M; read-out: growth inhibition percentage. The protocol: as §1, §2
A further data set relates to HS 578T. Description: NCI single dose screen, HS 578T. It counts as cell-based. As to conditions: Homo sapiens, breast cancer, single dose 10^−5 M, read-out: growth inhibition percentage. The protocol: as §1, §2

Experimental for human recombinant COX-2: (§3) The half-maximal inhibitory concentration (IC50, μM) was determined, and the COX-2 selectivity index (SI) was calculated as IC50 (COX-1)/IC50 (COX-2).
Experimental for ovine COX-1: as §3

With `CN1c2ccccc2C(=O)N(NC(=O)Nc2ccc(F)cc2)C1c1ccccc1` (stereo not shown) [Compound 6m, 1-(4-Fluorophenyl)-3-(1-methyl-4-oxo-2-phenyl-1,4-dihydroquinazolin-3(2H)-yl)urea], the melting point fell in the range of 220 to 222 °C. In addition, at ovine COX-1, the IC50 was 12.4 ± 2.74 µM. In addition, at human recombinant COX-2, the “COX-2 SI” value stood at 3.93 and the IC50 is 3.16 ± 1.22 µM. Moreover, in [1], 10.3 ± 0.27 µM corresponded to half-maximal inhibition (IC50). In [2], this compound registered a TNF-α concentration of 935.60 ± 3.85 pg/mL. Moreover, the inhibition at 10 µM in the data set on A549/ATCC was below 10%. In addition, the inhibition at 10 µM with NCI-H322M was below 10%. Also, the inhibition at 10 µM in the data set with NCI-H460 was below 10%. Besides, the inhibition at 10 µM in the data set with HCT-15 worked out at 14.3%. The inhibition at 10 µM with SF-539 is below 10%. The inhibition at 10 µM with SNB-19 is below 10%. Further, the inhibition at 10 µM in the data set on SNB-75 is below 10%. In addition, the inhibition at 10 µM in the data set with MDA-MB-435 was below 10%. Besides, the inhibition at 10 µM with MCF7 worked out at 21.2%. Further, the inhibition at 10 µM with HS 578T is below 10%.

As for `CN1c2ccccc2C(=O)N(NC(=O)Nc2ccc(F)cc2)C1c1ccc(F)cc1` (stereo not shown) [Compound 6n, 1-(4-Fluorophenyl)-3-(2–(4-fluorophenyl)-1-methyl-4-oxo-1,4-dihydroquinazolin-3(2H)-yl)urea], the melting point was in the range of 214 to 216 °C. Further, on ovine COX-1, the IC50 turned out to be 10.5 ± 1.48 µM. Also, at human recombinant COX-2, the “COX-2 SI” value was 16.12 and the IC50 was 0.65 ± 1.3 µM. Besides, the IC50 in data set [1] was found to be 19.9 ± 0.71 µM. The same compound registered a TNF-α concentration in [2] of 1981.00 ± 209.9 pg/mL. Besides, the inhibition at 10 µM in the data set on A549/ATCC is below 10%. In addition, the inhibition at 10 µM in the data set on NCI-H322M was below 10%. For the same compound, the inhibition at 10 µM in the data set on NCI-H460 is below 10%. Besides, the inhibition at 10 µM in the data set with HCT-15 was determined as 17.5%. Further, the inhibition at 10 µM in the data set on SF-539 stood at 10.1%. The inhibition at 10 µM in the data set on SNB-19 is below 10%. The inhibition at 10 µM with SNB-75 was 28.1%. In addition, the inhibition at 10 µM in the data set on MDA-MB-435 is 25.8%. Further, in the data set on MCF7, the inhibition at 10 µM was 29.9%. In addition, in the data set with HS 578T, the inhibition at 10 µM was 19.7%.

The compound `COc1ccc(NC(=O)NN2C(=O)c3ccccc3N(C)C2c2ccc(OC)cc2)cc1` (stereo not shown) [Compound 6j, 1-(4-Methoxyphenyl)-3-(2-(4-methoxyphenyl)-1-methyl-4-oxo-1,4-dihydroquinazolin-3(2H)-yl)urea] gave a melting point of 205 to 207 °C. Besides, the half-maximal inhibitory concentration (IC50) at ovine COX-1 was found to be 26.9 ± 3.03 µM. Besides, at human recombinant COX-2, the “COX-2 SI” value turned out to be 5.34 and the IC50 came to 5.04 ± 1.56 µM. Further, in [1], 13.5 ± 0.29 µM corresponded to half-maximal inhibition (IC50). Further, in data set [2], the TNF-α concentration is 757.30 pg/mL and 757.30 ± 2.50 pg/mL. Besides, the inhibition at 10 µM in the data set with A549/ATCC was below 10%. For the same compound, in the data set with NCI-H322M, the inhibition at 10 µM is below 10%. The inhibition at 10 µM with NCI-H460 is below 10%. In addition, the inhibition at 10 µM in the data set with HCT-15 is below 10%. In addition, in the data set with SF-539, the inhibition at 10 µM was below 10%. Also, the inhibition at 10 µM with SNB-19 is below 10%. Further, the inhibition at 10 µM in the data set on SNB-75 was below 10%. In the data set with MDA-MB-435, the inhibition at 10 µM is below 10%. The inhibition at 10 µM with MCF7 was below 10%. Besides, the inhibition at 10 µM in the data set on HS 578T is below 10%.

Take `CN1c2ccccc2C(=O)N(NC(=O)Nc2ccccc2)C1c1ccccc1` (stereo not shown) [Compound 6c, 1-(1-Methyl-4-oxo-2-phenyl-1,4-dihydroquinazolin-3(2H)-yl)-3-phenylurea]: the melting point lay in the range of 180 to 181 °C. The compound also yielded an IC50 at ovine COX-1 of 1 ± 1.78 µM. Besides, on human recombinant COX-2, the “COX-2 SI” value is on record as 0.29 and the IC50 worked out at 3.41 ± 1.83 µM. This compound registered an IC50 in data set [1] of 1.54 ± 1.02 µM. In data set [2], this compound gave a TNF-α concentration of 955.00 ± 4.66 pg/mL. In addition, the inhibition at 10 µM with A549/ATCC was below 10%. In addition, the inhibition at 10 µM in the data set on NCI-H322M was below 10%. Moreover, the inhibition at 10 µM in the data set on NCI-H460 was below 10%. Also, the inhibition at 10 µM in the data set on HCT-15 was below 10%. Moreover, the inhibition at 10 µM with SF-539 was below 10%. For the same compound, in the data set on SNB-19, the inhibition at 10 µM is below 10%. Moreover, the inhibition at 10 µM in the data set on SNB-75 was below 10%. For the same compound, in the data set on MDA-MB-435, the inhibition at 10 µM was below 10%. The inhibition at 10 µM with MCF7 was below 10%. The inhibition at 10 µM with HS 578T amounted to 56.8%.
